The text below walks through data of patent publication US12338214B2, “Bexarotene derivatives and their use in treating cancer” (DJ THERAPEUTICS LLC, priority 2018, dated 2025).

The test system of one assay is NB4 cells. In words: Cell count activity in NB4 cells. It counts as cell-based, human. As to conditions: 5 days, FIG. 4. Here is the method: (§1) NB4 cells or MV4;11 cells were grown in RPMI, 10% fetal bovine serum and plated at a density of 25,000 cells/mL in presence or absence of compound of the disclosure (dissolved in DMSO) for 5 days. Cells were counted manually on a light microscope using a hemocytometer and Trypan blue exclusion or on the Nexcelom Cellometer Auto 2000 using Cellometer Viastain AOPI staining solution (Nexcelom CS2-0106).

For the next assay, the system named is MV4;11 cells. In words: Cell count activity in MV4;11 cells. In kind it is cell-based, human. As to conditions: 5 days, FIG. 5. Here is the method:
as §1

Take `C=C(c1ccc(C(=O)O)cc1)c1cc2c(cc1C)C(C)(C)CCC2(C)C` [bexarotene]: in the assay on NB4 cells, the “reduction in cell counts” value was “dose dependent reduction in cell counts”.
As to `CC1=C(/C=C/C(C)=C/C=C/C(C)=C/C(=O)O)C(C)(C)CCC1` [ATRA, all-trans retinoic acid], the “reduction in cell counts” value in the assay with MV4;11 cells is “dose dependent reduction in cell counts”.
